Results reported in patent publication US20110112100A1, “Hepatitis C Virus Inhibitors” (priority 2009, published 2011).
Counter-ions that a name gives are not always drawn. Like-named read-outs stand apart in the source and are kept apart here.

Columns and labels:
[1] = system: 1a-H77 replicon cells; assay: HCV 1a replicon inhibitory activity (Renilla luciferase); assay type: cell-based, hepatitis C virus; details: Hepatitis C virus, read-out: IC50 value (95% Confidence Intervals) pM Replicon 1A assay
Procedure, shortened: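 Replicon cells in DMEM + 10% FCS incubated 48 hours at 37° C., 5% CO2 with 1-in-3 serial dilutions of compound prepared in DMSO. Replication read as Renilla luciferase luminescence after lysis. EC50 taken from log concentration-response curves.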

[2] = system: 1b (con1) replicon cells; assay: HCV 1b replicon inhibitory activity (luciferase, Britelite Plus); assay type: cell-based, hepatitis C virus; details: Hepatitis C virus, read-out: IC50 value (95% Confidence Intervals) pM Replicon 1B assay
Procedure, shortened: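 1b (con1) luciferase replicon cells in DMEM + 10% FCS were exposed to 1-in-3 DMSO compound dilutions for 48 h at 37° C, 5% CO2. Luminescence was read 1-15 min after Britelite Plus addition; EC50 came from log concentration-response curves.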

[3] = Compound induced cytotoxicity in HCV replicon cell lines (WST-1 reagent); assay type: cell-based; details: human
Experimental: Test compounds were solubilised to 4 mM in 100% DMSO. Dilutions were made to the desired starting concentration in 100% DMSO and then 1 in 3 dilutions made, again in 100% DMSO. 0.5 μl of each sample was added to 384-well assay plates. White Lumitrac (Greiner) plates were used for the 1a and 1b replicon assays and black, clear bottomed (Greiner) plates were used for the WST-1 cytotoxity assay.
1b (con1) replicon cells were resuspended to a concentration of 1.4×10^5 cells/ml by addition of pre-warmed medium (DMEM+10% FCS). 50 μl of this suspension was added to each well of a 384-well assay plate (Black, clear bottomed, Greiner) already containing 0.5 μl of test compound.
All plates were covered with gas permeable seals and incubated at 37° C., 5% CO2 for 48 hours. After 48 hours, 5 μl WST-1 reagent (Roche, 11 644 807 001) was added to each well and the plate returned to the incubator for 3 hours. After this incubation period absorbance was read at 450 nm on an EnVision (Perkin Elmer) plate reader. The half maximal cytotoxic concentration (CC50) values were calculated for each compound by constructing log concentration-response curves.
All of the exemplified compounds have been screened in a cell proliferation assay (WST-1). A majority have […] in at least 2 independent experiments, the exceptions being the compounds of examples 1, 10, 12, 23, 25, 37, 47, 48, 49, 52, 56, 57, 58, 60, 67, 68, 69, 70, 71, 72, 73, 74, 79, 81 and 84 which have CC50 values>2 μM in 1 experiment, and example 20 where the CC50 is reported as >10 nM (in this instance the top concentration tested in the assay was 10 nM).

[4] = geometric mean, 95% confidence intervals in parentheses, 48 hours, medium with 10% FCS
[5] = 1b (con1) HCV replicon cells, WST-1, 48 hours, in 1 experiment

Compound | IC50 [1, 4] [pM] | IC50 [2, 4] [pM] | CC50 at 48 h [3, 5] [nM] | CC50 at 48 h ([3]; 1b (con1) HCV replicon cells, WST-1, top concentration tested in the assay was 10 nM) [nM] | IC50 ([1]; 48 h) [pM] | IC50 ([2]; 48 h) [pM] | CC50 at 48 h ([3]; WST-1, 48 hours, in 1 experiment) [nM]
COC(=O)N[C@H](C(=O)N1CCC[C@H]1c1ncc(-c2ccc(-c3ccc4cc(-c5cnc([C@@H]6CCCN6C(=O)[C@@H](NC(=O)OC)C(C)C)[nH]5)cnc4c3)nc2)[nH]1)C(C)C [Example 10, Methyl {(2S)-1-[(2S)-2-{5-[6-(3-{2-[(2S)-1-{(2S)-2-[(methoxycarbonyl)amino]-3-methyl-butanoyl}pyrrolidin-2-yl]-1H-imidazol-5-yl}quinolin-7-yl)pyridin-3-yl]-1H-imidazol-2-yl}pyrrolidin-1-yl]-3-methyl-1-oxobutan-2-yl}carbamate] | 1320 | 49.4 | > 2000 | – | – | – | –
CC[C@H](NC(=O)OC)C(=O)N1CCC[C@H]1c1nc(-c2ccc(-c3cnc4cc(-c5cnc([C@@H]6CCCN6C(=O)[C@H](CC)NC(=O)OC)[nH]5)cnc4c3)cc2)c[nH]1 [Example 12, Methyl {(2S)-1-[(2S)-2-{4-[4-(7-{2-[(2S)-1-{(2S)-2-[(methoxycarbonyl)amino]butanoyl}pyrrolidin-2-yl]-1H-imidazol-5-yl}-1,5-naphthyridin-3-yl)phenyl]-1H-imidazol-2-yl}pyrrolidin-1-yl]-1-oxobutan-2-yl}carbamate] | 3100 | 358 | > 2000 | – | – | – | –
COC(=O)N[C@H](C(=O)N1CCC[C@H]1c1ncc(-c2ccc(-c3ncc4cc(-c5cnc([C@@H]6CCCN6C(=O)[C@@H](NC(=O)OC)C(C)C)[nH]5)ccc4n3)nc2)[nH]1)C(C)C [Example 20, Methyl {(2S)-1-[(2S)-2-{5-[2-(5-{2-[(2S)-1-{(2S)-2-[(methoxycarbonyl)amino]-3-methylbutanoyl}pyrrolidin-2-yl]-1H-imidazol-5-yl}pyridin-2-yl)quinazolin-6-yl]-1H-imidazol-2-yl}pyrrolidin-1-yl]-3-methyl-1-oxobutan-2-yl}carbamate] | 1720 | 127 | – | > 10 | – | – | –
COC(=O)N[C@H](C(=O)N1CCC[C@H]1c1nc(-c2ccc3nc(-c4ccc(-c5cnc([C@@H]6CCCN6C(=O)[C@@H](NC(=O)OC)C(C)C)[nH]5)cc4)cc(C#N)c3c2)c[nH]1)C(C)C [Example 23, Methyl {(2S)-1-[(2S)-2-{5-[4-(4-cyano-6-{2-[(2S)-1-{(2S)-2-[(methoxycarbonyl)amino]-3-methylbutanoyl}pyrrolidin-2-yl]-1H-imidazol-4-yl}quinolin-2-yl)phenyl]-1H-imidazol-2-yl}pyrrolidin-1-yl]-3-methyl-1-oxobutan-2-yl}carbamate] | 5450 | 58.4 | > 2000 | – | – | – | –
CC[C@H](NC(=O)OC)C(=O)N1CCC[C@H]1c1ncc(-c2ccc(-c3ccc4cc(-c5cnc([C@@H]6CCCN6C(=O)[C@H](CC)NC(=O)OC)[nH]5)ccc4c3)cc2)[nH]1 [Example 25, Methyl {(2S)-1-[(2S)-2-{5-[4-(6-{2-[(2S)-1-{(2S)-2-[(methoxycarbonyl)amino]butanoyl}pyrrolidin-2-yl]-1H-imidazol-5-yl}naphthalen-2-yl)phenyl]-1H-imidazol-2-yl}pyrrolidin-1-yl]-1-oxobutan-2-yl}carbamate] | 88.8 | 10.8 | > 2000 | – | – | – | –
CCC[C@H](NC(C)=O)C(=O)N1CCC[C@H]1c1ncc(-c2ccc3nc(-c4ccc(-c5c[nH]c([C@@H]6CCCN6C(=O)[C@@H](NC(=O)OC)C(C)C)n5)cc4)cnc3c2)[nH]1 [Example 37, Methyl {(2S)-1-[(2S)-2-{4-{4-[6-(2-{(2S)-1-(N-acetyl-L-norvalyl)pyrrolidin-2-yl]-1H-imidazol-5-yl)quinoxalin-2-yl)phenyl]-1H-imidazol-2-yl}pyrrolidin-1-yl]-3-methyl-1-oxobutan-2-yl}carbamate trifluoroacetic acid salt] | – | – | > 2000 | – | 284 | 42.9 | –
COC(=O)N[C@H](C(=O)N1CCC[C@H]1c1nc(-c2ccc(-c3cnc4cc(-c5cnc([C@@H]6CCCN6C(=O)[C@H](Cc6ccccc6)NC(C)=O)[nH]5)ccc4n3)cc2)c[nH]1)C(C)C [Example 47, Methyl {(2S)-1-[(2S)-2-{4-[4-(6-{2-[(2S)-1-(N-acetyl-L-phenylalanyl)pyrrolidin-2-yl]-1H-imidazol-5-yl}quinoxalin-2-yl)phenyl]-1H-imidazol-2-yl}pyrrolidin-1-yl]-3-methyl-1-oxobutan-2-yl}carbamate trifluoroacetic acid salt] | – | – | > 2000 | – | 6850 | 52.8 | –
COC(=O)N[C@@H](Cc1ccccc1)C(=O)N1CCC[C@H]1c1ncc(-c2ccc3nc(-c4ccc(-c5c[nH]c([C@@H]6CCCN6C(=O)[C@@H](NC(=O)OC)C(C)C)n5)cc4)cnc3c2)[nH]1 [Example 49, Methyl {(2S)-1-[(2S)-2-{5-[2-(4-{2-[(2S)-1-{(2S)-2-[(methoxycarbonyl)amino]-3-methylbutanoyl}pyrrolidin-2-yl]-1H-imidazol-4-yl}phenyl)quinoxalin-6-yl]-1H-imidazol-2-yl}pyrrolidin-1-yl]-1-oxo-3-phenylpropan-2-yl}carbamate trifluoroacetic acid salt] | – | – | > 2000 | – | 73 | 7.27 | –
CC[C@H](NC(=O)OC)C(=O)N1CCC[C@H]1c1ncc(-c2ccc3nc(-c4ccc(-c5c[nH]c([C@@H]6CCCN6C(=O)[C@@H](NC(=O)OC)C(C)C)n5)cc4)cnc3c2)[nH]1 [Example 52, Methyl {(2S)-1-[(2S)-2-{4-[4-(6-{2-[(2S)-1-{(2S)-2-[(methoxycarbonyl)amino]butanoyl}pyrrolidin-2-yl]-1H-imidazol-5-yl}quinoxalin-2-yl)phenyl]-1H-imidazol-2-yl}pyrrolidin-1-yl]-3-methyl-1-oxobutan-2-yl}carbamate trifluoroacetic acid salt] | – | – | > 2000 | – | 22.1 | 16.6 | –
COC(=O)N[C@H](C(=O)N1CCC[C@H]1c1ncc(-c2ccc3nc(-c4ccc(-c5c[nH]c([C@@H]6CCCN6C(=O)[C@@H](NC(=O)OC)C(C)C)n5)cc4)cnc3c2)[nH]1)c1ccccc1 [Example 56, Methyl {(2S)-1-[(2S)-2-{4-[4-(6-(2-[(2S)-1-{(2S)-2-[(methoxycarbonyl)amino]-2-phenylacetyl}pyrrolidin-2-yl]-1H-imidazol-5-yl}quinoxalin-2-yl)phenyl]-1H-imidazol-2-yl}pyrrolidin-1-yl]-3-methyl-1-oxobutan-2-yl}carbamate trifluoroacetic acid salt] | – | – | > 2000 | – | 26.3 | 10.2 | –
CC[C@H](C)[C@H](NC(=O)OC)C(=O)N1CCC[C@H]1c1ncc(-c2ccc3nc(-c4ccc(-c5c[nH]c([C@@H]6CCCN6C(=O)[C@@H](NC(=O)OC)C(C)C)n5)cc4)cnc3c2)[nH]1 [Example 58, Methyl {(2S)-1-[(2S)-2-{4-[4-(6-{2-[(2S)-1-{(2S,3S)-2-[(methoxycarbonyl)amino]-3-methylpentanoyl}pyrrolidin-2-yl]-1H-imidazol-5-yl}quinoxalin-2-yl)phenyl]-1H-imidazol-2-yl}pyrrolidin-1-yl]-3-methyl-1-oxobutan-2-yl}carbamate trifluoroacetic acid salt] | – | – | > 2000 | – | 6.71 | 5.07 | –
COC(=O)N[C@H](C(=O)N1CCC[C@H]1c1nc(-c2ccc(-c3cnc4cc(-c5cnc([C@@H]6CCCN6C(=O)[C@@H](NC(=O)OC)[C@@H](C)O)[nH]5)ccc4n3)cc2)c[nH]1)C(C)C [Example 60, Methyl {(2S)-1-[(2S)-2-{4-[4-(6-{2-[(2S)-1-{(2S,3R)-3-hydroxy-2-[(methoxycarbonyl)amino]butanoyl}pyrrolidin-2-yl]-1H-imidazol-5-yl}quinoxalin-2-yl)phenyl]-1H-imidazol-2-yl}pyrrolidin-1-yl]-3-methyl-1-oxobutan-2-yl}carbamate trifluoroacetic acid salt] | – | – | – | – | 22.3 | 23.7 | > 2000
